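The compound was tested at five concentrations on cells cultured in 96-well plates, with a 48-hour exposure period. GI50 marks 50% less growth.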 The source made the active and inactive calls. No stated cut-off is given here; in the data, active = GI50 up to about 1.1 µM and inactive = higher. Bounds are passed on as bounds.

Test in all cases: NCI tumour cell line growth inhibition, 48 h
For test [1], the system named is Malme-3M.
The subject of test [2] is HL-60.
For test [3], the system named is A498.
The test system of test [4] is HOP-92.
Test [5] relates to Hs-578T.
Test [6] concerns SK-OV-3.
Test [7] has as its system CCRF-CEM.
The subject of test [8] is A549.
Test [9] deals with T47D.
Test [10] has as its system SR.
Test [11] has as its system SNB-19.
For test [12], the system named is TK-10.
Test [13] has as its system UACC-62.
Test [14] has as its system HCC 2998.
For test [15], the system named is MDA-MB-231.
Test [16] has as its system DU-145.
Test [17] relates to OVCAR-8.
The test system of test [18] is RXF 393.
For test [19], the system named is NCI/ADR-RES.
Test [20] relates to SF-539.

As to `CC(C)(C)c1cc(C(=O)/C=C/c2ccc(C(=O)O)cc2)cc(C(C)(C)C)c1`, the GI50 in test [1] was 1.42 µM (inactive); in [2], 3.51 µM (inactive); in test [3], 1.92 µM (inactive); in test [4], 6.68 µM (inactive); in [5] it was 1.42 µM (inactive); in [6], 2.87 µM (inactive). Moreover, the GI50 was 2.91 µM (inactive) in [7]; 2.07 µM (inactive) in test [8]; 5.56 µM (inactive) in [9]; 2.4 µM (inactive) in test [10]; 2.36 µM (inactive) in test [11]; 3.37 µM (inactive) in test [12]. Also, the GI50 in test [13] was 1.77 µM (inactive); in test [14], 1.82 µM (inactive); in test [15], 3.87 µM (inactive); in test [16] it was 2.77 µM (inactive); in test [17], 2.44 µM (inactive); in test [18], 1.5 µM (inactive). Further, the GI50 in test [19] is 2.42 µM (inactive); in [20] it was 1.36 µM (inactive).
On to `Nc1c2c(=O)[nH]c(=O)c2c(N)c2c(=O)c3ccccc3c(=O)c12`, for which the GI50 in [1] is 0.222 µM (active); in test [2], 2 µM (inactive); in [3] it was 1.12 µM (inactive); in [4], 12.9 µM (inactive); in [5] it was 2.62 µM (inactive); in test [6] it was 7.23 µM (inactive). Moreover, the GI50 in [7] is 2.93 µM (inactive); in test [8] it was 0.897 µM (active); in test [9] it was 3.94 µM (inactive); in [10] it was 2.74 µM (inactive); in test [11], 3.29 µM (inactive); in [12], 9.68 µM (inactive). Also, the GI50 in test [13] is 1.61 µM (inactive); in test [14] it was 4.48 µM (inactive); in test [15] it was 3.02 µM (inactive); in [16] it was 1.56 µM (inactive); in [17] it was 1.82 µM (inactive); in test [18], 3.57 µM (inactive). The values for the GI50 in test [19] and in test [20] were 2.11 µM (inactive) and 2.04 µM (inactive), respectively.
For the compound `CCCCN(CC)c1nc(C)nc2c1c(C)c(C)n2-c1c(C)cc(C)cc1C` [ANTALARMIN], the GI50 in test [1] was 15.9 µM (inactive); in test [2], 4.1 µM (inactive); in [3] it was 16.9 µM (inactive); in test [4], 9.35 µM (inactive); in test [5] it was 16.9 µM (inactive); in test [6] it was 17.1 µM (inactive). Besides, the GI50 in test [7] was 11.3 µM (inactive); in [8], 14.2 µM (inactive); in [9], 10.7 µM (inactive); in [10], 8.45 µM (inactive); in test [11] it was 16.4 µM (inactive); in test [12], 17.4 µM (inactive). In addition, the GI50 in [15] was 14.2 µM (inactive); in test [16], 16.6 µM (inactive); in [17], 14.2 µM (inactive); in test [18], 6.93 µM (inactive); in [19], 13.6 µM (inactive); in test [20], 2.69 µM (inactive).
On to `Cc1[nH]nc(-c2ccon2)c1N=O`, for which the GI50 in test [1] was 20.7 µM (inactive); in test [2] it was 12.1 µM (inactive); in [3], > 100 µM (inactive); in test [4] it was 14.2 µM (inactive); in test [5], 26.9 µM (inactive); in test [6] it was 26.3 µM (inactive). The GI50 in [8] was 23.7 µM (inactive); in test [9], 25.1 µM (inactive); in test [10], 10 µM (inactive); in test [11], 26.9 µM (inactive); in [12], 18.7 µM (inactive); in test [13] it was 17.9 µM (inactive). The GI50 is 16.8 µM (inactive) in test [15]; 21.4 µM (inactive) in test [16]; 17 µM (inactive) in test [17]; 34.3 µM (inactive) in [18]; 19.8 µM (inactive) in test [19]; 17.9 µM (inactive) in [20].
`COc1cc(OC)c2nc(C)c3c(c2c1)OCC3`: the GI50 is > 100 µM (inactive) in test [1]; > 100 µM (inactive) in test [2]; > 100 µM (inactive) in test [3]; 40.6 µM (inactive) in [4]; 47.4 µM (inactive) in test [5]; > 100 µM (inactive) in test [7]. The GI50 was > 100 µM (inactive) in test [8]; > 100 µM (inactive) in test [9]; > 100 µM (inactive) in test [10]; 47.3 µM (inactive) in test [11]; > 100 µM (inactive) in test [12]; 44.8 µM (inactive) in [13]. Moreover, the GI50 was > 100 µM (inactive) in test [14]; 12.6 µM (inactive) in test [15]; > 100 µM (inactive) in test [16]; > 100 µM (inactive) in [17]; 22.6 µM (inactive) in test [18]; > 100 µM (inactive) in [19]. For the same compound, the GI50 in test [20] was 86.7 µM (inactive).
Take `Cn1c(-c2cccc(N)c2)[n+](C)c2ccccc21`: the GI50 in [1] is > 100 µM (inactive); in test [2], 36.1 µM (inactive); in [3], 22.4 µM (inactive); in [4] it was > 100 µM (inactive); in test [5] it was 64.6 µM (inactive); in test [6] it was > 100 µM (inactive). Besides, the GI50 in [7] was 53.1 µM (inactive); in test [8], 40.9 µM (inactive); in test [9] it was > 100 µM (inactive); in test [10] it was > 100 µM (inactive); in [11], 60.3 µM (inactive); in test [12], > 100 µM (inactive). Moreover, the GI50 in test [13], in [14], in [15], in test [16], in [17] and in [18] was > 100 µM (inactive) each time. Besides, the GI50 in test [19] and in [20] was > 100 µM (inactive) throughout.
Turning to `O=P(O)(O)CN1CCN(CP(=O)(O)O)CCN(CP(=O)(O)O)CCN(CP(=O)(O)O)CC1`, the GI50 in [2] was 25.4 µM (inactive); in [3], 62.5 µM (inactive); in [4], 38.3 µM (inactive); in test [5], > 100 µM (inactive); in test [7] it was 44.9 µM (inactive); in [8], 58.5 µM (inactive). Moreover, the GI50 in test [9] was > 100 µM (inactive); in test [10], 10.5 µM (inactive); in test [11], > 100 µM (inactive); in test [12], 55.5 µM (inactive); in test [13] it was 46 µM (inactive); in test [14] it was 88.7 µM (inactive). For the same compound, the GI50 in test [15] was > 100 µM (inactive); in [16], > 100 µM (inactive); in [17], 77.6 µM (inactive); in [18] it was 47.4 µM (inactive); in [19], > 100 µM (inactive); in test [20], 70.5 µM (inactive).
With `COc1cc(C2c3cc(OC)c(OC)c(O)c3C(=O)C3CCC(=O)N32)cc(OC)c1OC` (stereo not given), the GI50 in [2] was 26.4 µM (inactive); in test [3], > 100 µM (inactive); in test [4], 35.3 µM (inactive); in [5], 56.4 µM (inactive); in [6], 63 µM (inactive); in [8] it was > 100 µM (inactive). Further, the GI50 in test [9] was > 100 µM (inactive); in test [10], 89.7 µM (inactive); in [11], > 100 µM (inactive); in [12], > 100 µM (inactive); in [13], 64 µM (inactive); in test [14] it was > 100 µM (inactive). Also, the GI50 in test [15] is 44.1 µM (inactive); in test [16], > 100 µM (inactive); in test [17], 25 µM (inactive); in test [19] it was 22 µM (inactive); in test [20] it was > 100 µM (inactive).
As to `N/C(S)=N/N=C/c1ccc(O)cn1`, the GI50 was 7.55 µM (inactive) in test [1]; 4.12 µM (inactive) in test [2]; 32 µM (inactive) in test [3]; 4.68 µM (inactive) in test [4]; 316 µM (inactive) in [5]; 1.78 µM (inactive) in [7]. The GI50 was 47.6 µM (inactive) in test [8]; 4.72 µM (inactive) in [9]; 1.64 µM (inactive) in test [10]; 12.9 µM (inactive) in test [11]; 105 µM (inactive) in [12]; 13.6 µM (inactive) in test [14]. Also, the GI50 in [15] is 18.5 µM (inactive); in [16], 2.96 µM (inactive); in [17], 3.51 µM (inactive); in test [19], 4.01 µM (inactive); in test [20], 2.26 µM (inactive).
As for `COc1ccc2c(c1)CCC(CN1CCN(CCOC(c3ccccc3)c3ccccc3)CC1)C2O` (stereo not given), the GI50 in test [1] is 17.5 µM (inactive); in test [2] it was 2.81 µM (inactive); in test [3], 10.5 µM (inactive); in test [4], 14.4 µM (inactive); in test [5] it was 19.3 µM (inactive); in test [6], 17.9 µM (inactive). For the same compound, the GI50 in [7] was 16.3 µM (inactive); in test [8], 18.2 µM (inactive); in test [9], 16.1 µM (inactive); in test [10], 16.7 µM (inactive); in [11], 18.3 µM (inactive); in [12] it was 14.1 µM (inactive). For the same compound, the GI50 in test [13] was 13.5 µM (inactive); in [14], 4.28 µM (inactive); in [15] it was 15.7 µM (inactive); in test [16], 20.1 µM (inactive); in [17], 14.5 µM (inactive); in [18], 14.1 µM (inactive). Besides, the figures for the GI50 in [19] and in test [20] were 13.8 µM (inactive) and 11.3 µM (inactive), respectively.
Turning to `COCCOc1nc(-c2ccccc2)nc2ccccc12`, the GI50 in test [1] is 51.1 µM (inactive); in [2], 29.2 µM (inactive); in test [3], 15 µM (inactive); in test [4], 27.6 µM (inactive); in [5], 28.8 µM (inactive); in [6], 46.7 µM (inactive). Besides, the GI50 in [8] was 37.3 µM (inactive); in [9], 27.7 µM (inactive); in [10] it was 19.7 µM (inactive); in [11] it was 69.2 µM (inactive); in test [12], 36 µM (inactive); in test [13], 20.7 µM (inactive). For the same compound, the GI50 in test [15] is 31 µM (inactive); in test [16], 54.7 µM (inactive); in [17] it was 42 µM (inactive); in test [18], 11.7 µM (inactive); in test [19], 32.6 µM (inactive); in [20], 48.8 µM (inactive).

The values are drawn from ChEMBL document CHEMBL1201862, “PubChem BioAssay data set” (2004).
